# In patent publication US9487520B2, “Coelenterazine derivatives and methods of using same” (PROMEGA CORPORATION, priority 2010, dated 2016):
# Experiments:
# [1] = test system: Jurkat cells; assay: Measuring metabolically active cells using quinone coelenterazine derivatives; assay type: cell-based; conditions: two-fold serial dilutions of Jurkat cells; stocks 50 μM (40) and 100 μM (50); 30 minutes at 37° C.; Oplophorus luciferase detection reagent
# Description: Viable cells maintain a metabolically active state that is inevitably lost when cells are damaged. Upon entering the living cells, the quinone coelenterazine is reduced to a coelenterazine derivative that is a substrate for a coelenterazine-utilizing luciferase, e.g., Oplophorus or Renilla luciferase. Conversion of the quinone coelenterazine is proportional to the number of metabolically active cells, and therefore can be measured quantitatively by monitoring light produced by luciferase reaction.
# Two-fold serial dilutions of Jurkat cells were prepared in PBS, and 50 μl per well transferred to wells in 96-well plates. Compounds 40 and 50 were diluted in PBS to make 50 μM and 100 μM stocks, respectively. 10 μl of prepared compound stocks were added to the cells, and the cells were placed into 37° C., 5% CO2 incubator. Following 30 minutes incubation, the cells were removed from incubator, cooled at room temperature for 10 minutes, and 50 μl of Oplophorus luciferase detection reagent added directly to the wells. The samples were mixed, incubated at room temperature for 20 minutes, and luminescence measured.
# [2] = target: T1, caspase-3 (Homo sapiens, UniProt P42574); assay: Caspase-3 detection with z-DEVD-coelenterazine-h and Renilla luciferase; assay type: biochemical; conditions: 25 μM substrate, 25 U/ml caspase-3, 3.25 ug/ml Renilla luciferase, measured over 110 minutes
# T1 sequence (P42574 29-175 limits assumed): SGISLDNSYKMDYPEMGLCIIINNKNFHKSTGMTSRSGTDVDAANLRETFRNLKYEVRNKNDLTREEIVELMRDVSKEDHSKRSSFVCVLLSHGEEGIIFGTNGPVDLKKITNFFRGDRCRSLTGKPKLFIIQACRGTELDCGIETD
# T1 sequence (P42574 176-277 limits assumed): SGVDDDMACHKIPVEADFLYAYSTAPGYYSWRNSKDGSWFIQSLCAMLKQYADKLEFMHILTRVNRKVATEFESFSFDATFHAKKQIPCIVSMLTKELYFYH
# Protocol: Compound 21 (50 μM) was combined with Renilla luciferase (6.5 μg/ml, Renilla-GST fusion) in 50 mM HEPES buffer pH 7.2, 2 mM DTT, and 0.5% CHAPS and incubated for 20 minutes to remove any free coelenterazine derivatives that may be substrates for Renilla luciferase. Purified caspase-3 enzyme (50 U/ml) or buffer control was added in a 1:1 volume ratio for final concentrations of 25 μM Z-DEVD-coelenterazine h derivative substrate, 25 U/ml caspase-3 and 3.25 ug/ml luciferase. Luminescence was measured over 110 minutes.
# [3] = target: T1, caspase-3; assay: Caspase 3 assay using Oplophorus luciferase variant 9B8 opt; assay type: biochemical; conditions: 23.5 μM substrate, OgLuc 9B8 opt lysate, with caspase-3
# Protocol: (§1) An Oplophorus luciferase (OgLuc) variant, 9B8 opt, was used in a bioluminescent assay using a pro-coelenterazine substrate comprising the DEVD caspase-3 cleavage sequence. Purified caspase-3 enzyme was mixed with an E. coli lysate sample expressing the variant 9B8 opt, which was purified using the HALOLINK™ Resin (Promega Corp.) according to manufacturer's instructions, and diluted 10-fold in a buffer containing 100 mM MES pH 6.0, 1 mM CDTA, 150 mM KCl, 35 mM thiourea, 2 mM DTT, 0.25% TERGITOL® NP-9 (v/v), 0.025% MAZU®, with or without 23.5 μM z-DEVD-coelenterazine-h in 100 mM HEPES pH 7.5. The caspase-3 enzyme was incubated with the lysate sample for 3 hrs at room temperature, and luminescence detected on a Turner MODULUS™ luminometer at various time points. A sample containing only bacterial lysate and a sample containing only caspase-3 were used as controls. Three replicates were used.
# [4] = test system: caspase-3; assay: as above; assay type: biochemical; conditions: 23.5 μM substrate, OgLuc 9B8 opt lysate, no caspase-3
# Protocol: as §1
Compound,relationship between luminescence and cell number [1],increase in luminescence relative to control samples that did not contain caspase [2],"luminescence, + caspase ([3]; 5.0 min)","luminescence, + caspase ([3]; 15.3 min)","luminescence, + caspase ([3]; 29.9 min)","luminescence, + caspase ([3]; 60.9 min)","luminescence, + caspase ([3]; 190.3 min)","luminescence, − caspase ([4]; 5.0 min)","luminescence, − caspase ([4]; 15.3 min)","luminescence, − caspase ([4]; 29.9 min)","luminescence, − caspase ([4]; 60.9 min)","luminescence, − caspase ([4]; 190.3 min)"
CC1=C(C)C(=O)C(C(C)(C)CC(=O)N(C)CCN(C)C(=O)Oc2c(Cc3ccco3)nc3c(Cc4ccccc4)nc(-c4ccccc4)cn23)=C(C)C1=O [Compound 40],linear correlation between cell number and luminescence,–,–,–,–,–,–,–,–,–,–,–
CC1=C(C)C(=O)C(C(C)(C)CC(=O)N(C)CCN(C)C(=O)Oc2c(Cc3ccccc3)nc3c(Cc4ccccc4)nc(-c4ccccc4)cn23)=C(C)C1=O [Compound 50],linear correlation between cell number and luminescence,–,–,–,–,–,–,–,–,–,–,–
z-DEVD-coelenterazine-h [Compound 21],–,one hundred-fold increase,"25,411 RLU","36,906 RLU","41,854 RLU","43,370 RLU","42,448 RLU","26,023 RLU","7,707 RLU","4,013 RLU","2,305 RLU","1,155 RLU"
